Common to all, as to experiment: fluorescence titration of purified protein, hyperbolic fit, […]°C
For experiment [1], the target named is T1, drFabp2 (intestinal fatty acid binding protein) (Danio rerio, UniProt A0A8M1P5F0, K17A/K30A/R29A).
T1 construct: gene fabp2; Full-length mutant, recombinant from E. coli BL21 (DE3), delipidated (apo)

Experiment [2] deals with T2, drFabp2 (intestinal fatty acid binding protein) (Danio rerio, UniProt A0A8M1P5F0, K17A/K28A/R29A).
T2 construct: gene fabp2; Full-length mutant, recombinant from E. coli BL21 (DE3), delipidated (apo)

Experiment [3] concerns the target T3, drFabp2 (intestinal fatty acid binding protein) (Danio rerio, UniProt A0A8M1P5F0).
T3 construct: gene fabp2; Full-length wild-type, recombinant from E. coli BL21 (DE3), delipidated (apo)
T3 sequence (A0A8M1P5F0 1-132): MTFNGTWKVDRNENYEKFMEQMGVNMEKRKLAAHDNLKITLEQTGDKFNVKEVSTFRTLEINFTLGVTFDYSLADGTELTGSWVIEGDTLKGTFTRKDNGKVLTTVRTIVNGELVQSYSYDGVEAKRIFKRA

pKd: −log10 of the molar value.

T2 sequence (A0A8M1P5F0 entry or part of it K17A/K28A/R29A): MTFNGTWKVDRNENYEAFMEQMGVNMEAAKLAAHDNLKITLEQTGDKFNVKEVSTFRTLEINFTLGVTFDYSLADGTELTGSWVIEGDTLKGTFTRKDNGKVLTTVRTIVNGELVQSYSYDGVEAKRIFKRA
T1 sequence (A0A8M1P5F0 entry or part of it K17A/R29A/K30A): as the sequence (A0A8M1P5F0 entry or part of it K17A/K28A/R29A) above, with A28K, K30A counted along it

What is called pKd is the negative decadic logarithm of the Kd, by convention in mol/L. Low values mean a high Kd, high ones a low Kd. Consider `CC1=CC(C)=[N+]2C1=Cc1ccc(CCCCCCCCCCCCCCCC(=O)O)n1[B-]2(F)F` [BODIPY FL C16], for which the results for the pKd in experiment [1], in experiment [2] and in experiment [3] were 6.89, 6.95 and 6.80, respectively.

These data come from paper PMC7660557, “Identification of a non-classical three-dimensional nuclear localization signal in the intestinal fatty acid binding protein” (PLoS ONE, 2020).
